The target of one data set is T1, human amylin receptors (Homo sapiens, UniProt O60896+P30988).
T1 sequence (P30988 25-474): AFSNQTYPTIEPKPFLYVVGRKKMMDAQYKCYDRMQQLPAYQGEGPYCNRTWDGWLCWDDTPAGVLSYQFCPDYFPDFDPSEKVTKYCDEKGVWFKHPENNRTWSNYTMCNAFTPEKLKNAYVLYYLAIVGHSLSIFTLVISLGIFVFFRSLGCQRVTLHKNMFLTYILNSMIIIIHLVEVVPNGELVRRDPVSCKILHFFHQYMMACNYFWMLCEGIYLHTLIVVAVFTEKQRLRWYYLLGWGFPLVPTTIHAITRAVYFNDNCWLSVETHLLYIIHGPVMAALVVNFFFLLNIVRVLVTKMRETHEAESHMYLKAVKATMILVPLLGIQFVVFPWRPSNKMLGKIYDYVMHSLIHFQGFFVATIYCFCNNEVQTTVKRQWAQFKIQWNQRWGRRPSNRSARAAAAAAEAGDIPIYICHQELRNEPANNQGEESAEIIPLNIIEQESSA
T1 sequence (O60896 24-148 partner): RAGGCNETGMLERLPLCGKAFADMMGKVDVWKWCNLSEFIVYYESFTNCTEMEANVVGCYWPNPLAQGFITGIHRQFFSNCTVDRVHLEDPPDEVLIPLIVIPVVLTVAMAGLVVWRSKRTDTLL
The data set can be described thus: Luciferase assay of amylin (amylin receptor/CRE-luc cell line).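 Further: agonist potency from luminescence of cAMP response element-driven luciferase, EC50 derived from a standard curve of signal versus compound concentration.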 It counts as cell-based. The conditions noted are these: stably transfected amylin receptor/CRE-luc CHO cells (CHO-K1/Gal5/AMY3), 24 hours incubation, luciferase readout.

The nature of data set [1]: Heat accelerated stability assay under a neutral condition. The format is physicochemical. The conditions noted are these: pH about 7.4, 40°C; for Changes in characteristics or properties, 0d / Changes in characteristics or properties, 7d: 1 mg/mL, phosphate; for Concentration change (7d-0d)/%: Day 7 vs Day 0, reversed phase chromatography; for Purity Change% (7d-0d) / Purity Change% (26d-0d): purity from reversed phase chromatography-214 nm; for Purity Change% (7d-0d): Day 7 vs Day 0; for Purity Change% (26d-0d): Day 26 vs Day 0. The protocol:
The lyophilized powder (1 mg/mL) of calcitonin analogues or derivatives prepared in accordance with the method of Example 1 were mixed with sodium dihydrogen phosphate (1.42 mg/mL) and dissolved in ultrapure water in the indicated mass-volume ratios. After adjusting pH to about 7.4 with hydrochloric acid/sodium hydroxide, the solution was filtered into a sterilized vial in a clean bench using a 0.22 µm sterile filter. The vial was then capped and placed into the stability test chamber at 40°C. Detections were made on Days 7 (7d) and 26 (26d), and during the assay, changes in the characteristics and properties of the polypeptides were observed and recorded. The sample was then centrifuged for 3 min at 10000 rpm at 4°C, and the supernatant was transferred to a liquid phase sample vial for detecting the concentration and purity of the polypeptides using liquid phase chromatography described as below, wherein the concentration of the polypeptide = peak area/injection volume/extinction coefficient/60×flow rate, and the purity of the polypeptide = target peak area/total peak area× 100%.
Conditions of the reversed phase chromatography Flow rate: 1.0 ml/min; Autosampler temperature: 15°C; Column temperature: 25°C; Detection wavelengths: 280 nm and 214 nm; Mobile phase A: 100% H2O+0.05% TFA; Mobile phase B: 100% ACN; and Gradient of elution listed in Table 4: Table 4. Listing of the gradient of elution in the liquid phase chromatography
Results were shown below in Tables 5, 6, and 7. A difference of more than 5% in content as compared with the initial value was typically assumed (for example, as prescribed by the Chinese Pharmacopeia (2020 Edition)) to be a significant change. Within a reasonable margin of error, a decrease of less than 1% from the initial value to the detected content is denoted as "no change" below. Table 5. Changes in characteristics or properties in the heat accelerated stability assay

*1 amine or outer side, *2 acyl side, *3 side chain or, on linkers, in order; H or OH if unused. Where a SMILES comes first, the peptide text is derived from it. The star is where a group is joined. C22 diacid = O=C(O)CCCCCCCCCCCCCCCCCCCCC(=O)*; C18 diacid = O=C(O)CCCCCCCCCCCCCCCCC(=O)*; γGlu = O=C(O)[C@H](CCC(=O)[*:2])N[*:1]; AEEA = NCCOCCOCC(=O)O

Source text for human amylin receptors: The objective of this assay is to test the activity or potency of calcitonin analogues or derivatives on human amylin receptors in vitro using a luciferase assay.
Using the standard protocol, CHO-K1/Gal5/AMY3 cells (purchased from GenScript, with the calcitonin receptor and the receptor activity modifying peptide (RAMP) constructed already) were transfected with a plasmid containing a luciferase expression cassette driven by multiple copies of cAMP response elements (CREs). The cells were cultured in an F12 medium containing 200 ug/mL Zeocin, 2 ug/mL puromycin, 100 ug/mL hygromycin, and 400 ug/mL G418 to afford a stably transfected amylin receptor/CRE-luc cell line.
To each well of a white 96-well plate was added 50 µL of the tested sample solution at a respective concentration.
The stably transfected amylin receptor/CRE-luc CHO cells were resuspended in the growth medium at a certain density, and 50 µL of the cell suspension was added at a density of about 20000 cells per well to the white 96-well plate containing the tested sample solution. After incubation of 24 hours at 37°C and 5% CO2, 100 µL of a Luciferase substrate was added to each well, incubated for 3 minutes, and finally was tested for luminescence on SpectraMax L (Molecular Devices) with the software SoftMax Pro 7.0.3 GxP. A standard curve was plotted using the fluorescent intensities for calculation of EC50.

At human amylin receptors, `CC(C)C[C@H](NC(=O)[C@H](CCCNC(=N)N)NC(=O)CNC(=O)[C@H](CC(C)C)NC(=O)[C@@H](NC(=O)[C@H](C)NC(=O)[C@@H](NC(=O)[C@H](CO)NC(=O)[C@H](CC(C)C)NC(=O)[C@H](CCC(N)=O)NC(=O)[C@H](CO)NC(=O)[C@H](C)NC(=O)CC[C@H](NC(=O)CCCCCCCCCCCCCCCCC(=O)O)C(=O)O)[C@@H](C)O)C(C)C)C(=O)N[C@@H](CO)C(=O)N[C@@H](CC(=O)O)C(=O)N[C@@H](CCC(=O)O)C(=O)N[C@@H](CC(C)C)C(=O)N[C@@H](Cc1c[nH]cn1)C(=O)N[C@@H](CCCNC(=N)N)C(=O)N[C@@H](CC(C)C)C(=O)N[C@@H](CCC(N)=O)C(=O)N[C@@H](CC(=O)O)C(=O)N[C@@H](Cc1ccc(O)cc1)C(=O)N1CCC[C@H]1C(=O)N[C@@H](CCCNC(=N)N)C(=O)N[C@H](C(=O)N[C@@H](CC(=O)O)C(=O)N[C@H](C(=O)NCC(=O)N[C@@H](CO)C(=O)NCC(=O)N[C@@H](CO)C(=O)N1CCC[C@H]1C(N)=O)C(C)C)[C@@H](C)O` [M39] ({C18 diacid-γGlu}-ASQLSTAVLGRLSDELHRLQDYPRTDVGSGSP-NH2) registered a concentration for a half-maximal effect (EC50) of 0.016 nM. Also, in data set [1], the “Changes in characteristics or properties, 0d” value is “Clear”; the “Changes in characteristics or properties, 7d” value was “Clear”; the “Concentration change (7d-0d)/%” value is recorded as “No change (a decrease of less than 1% from the initial value to the detected content is denoted as "no change")”; the “Purity Change% (7d-0d)” value is “No change (a decrease of less than 1% from the initial value to the detected content is denoted as "no change")”. For the same compound, the “Purity Change% (26d-0d)” value in data set [1] was -3.3%.

In the case of `CC(C)C[C@H](NC(=O)[C@H](CCCNC(=N)N)NC(=O)CNC(=O)[C@H](CC(C)C)NC(=O)[C@@H](NC(=O)[C@H](C)NC(=O)[C@@H](NC(=O)[C@H](CO)NC(=O)[C@H](CC(C)C)NC(=O)[C@H](CCC(N)=O)NC(=O)[C@H](CO)NC(=O)[C@H](C)NC(=O)[C@H](CCC(=O)O)NC(=O)CCCCCCCCCCCCCCCCC(=O)O)[C@@H](C)O)C(C)C)C(=O)N[C@@H](CO)C(=O)N[C@@H](CC(=O)O)C(=O)N[C@@H](CCC(=O)O)C(=O)N[C@@H](CC(C)C)C(=O)N[C@@H](Cc1c[nH]cn1)C(=O)N[C@@H](CCCNC(=N)N)C(=O)N[C@@H](CC(C)C)C(=O)N[C@@H](CCC(N)=O)C(=O)N[C@@H](CC(=O)O)C(=O)N[C@@H](Cc1ccc(O)cc1)C(=O)N1CCC[C@H]1C(=O)N[C@@H](CCCNC(=N)N)C(=O)N[C@H](C(=O)N[C@@H](CC(=O)O)C(=O)N[C@H](C(=O)NCC(=O)N[C@@H](CO)C(=O)NCC(=O)N[C@@H](CO)C(=O)N1CCC[C@H]1C(N)=O)C(C)C)[C@@H](C)O` [M42] ({C18 diacid}-EASQLSTAVLGRLSDELHRLQDYPRTDVGSGSP-NH2), the midpoint of the response on human amylin receptors, the EC50, lay at 0.016 nM. In addition, in data set [1], the “Changes in characteristics or properties, 0d” value is given as “Clear”; the “Changes in characteristics or properties, 7d” value is “Clear”; the “Concentration change (7d-0d)/%” value is given as -3.344%; the “Purity Change% (7d-0d)” value is on record as “No change (a decrease of less than 1% from the initial value to the detected content is denoted as "no change")”. For the same compound, the “Purity Change% (26d-0d)” value in data set [1] is listed as -2.93%.

At human amylin receptors, `CC(C)C[C@H](NC(=O)[C@H](CCCNC(=N)N)NC(=O)CNC(=O)[C@H](CC(C)C)NC(=O)[C@@H](NC(=O)[C@H](C)NC(=O)[C@@H](NC(=O)[C@H](CO)NC(=O)[C@H](CC(C)C)NC(=O)[C@H](CCC(N)=O)NC(=O)[C@H](CO)NC(=O)[C@H](C)NC(=O)CC[C@H](NC(=O)CCCCCCCCCCCCCCCCCCCCC(=O)O)C(=O)O)[C@@H](C)O)C(C)C)C(=O)N[C@@H](CO)C(=O)N[C@@H](CCC(=O)O)C(=O)N[C@@H](CCC(=O)O)C(=O)N[C@@H](CC(C)C)C(=O)N[C@@H](Cc1c[nH]cn1)C(=O)N[C@@H](CCCNC(=N)N)C(=O)N[C@@H](CC(C)C)C(=O)N[C@@H](CCC(N)=O)C(=O)N[C@@H](CC(=O)O)C(=O)N[C@@H](Cc1ccc(O)cc1)C(=O)N1CCC[C@H]1C(=O)N[C@@H](CCCNC(=N)N)C(=O)N[C@H](C(=O)N[C@@H](CC(=O)O)C(=O)N[C@H](C(=O)NCC(=O)N[C@@H](CO)C(=O)NCC(=O)N[C@@H](CO)C(=O)N1CCC[C@H]1C(N)=O)C(C)C)[C@@H](C)O` [M65] ({C22 diacid-γGlu}-ASQLSTAVLGRLSEELHRLQDYPRTDVGSGSP-NH2) displayed a half-maximal effective concentration (EC50) of 0.017 nM.

In turn, `CC(C)C[C@H](NC(=O)[C@H](CCCNC(=N)N)NC(=O)CNC(=O)[C@H](CC(C)C)NC(=O)[C@@H](NC(=O)[C@H](C)NC(=O)[C@@H](NC(=O)[C@H](CO)NC(=O)[C@H](CC(C)C)NC(=O)[C@H](CCC(N)=O)NC(=O)[C@H](CO)NC(=O)[C@H](C)NC(=O)COCCOCCNC(=O)COCCOCCNC(=O)CC[C@H](NC(=O)CCCCCCCCCCCCCCCCCCCCC(=O)O)C(=O)O)[C@@H](C)O)C(C)C)C(=O)N[C@@H](CO)C(=O)N[C@@H](CCC(=O)O)C(=O)N[C@@H](CCC(=O)O)C(=O)N[C@@H](CC(C)C)C(=O)N[C@@H](Cc1c[nH]cn1)C(=O)N[C@@H](CCCNC(=N)N)C(=O)N[C@@H](CC(C)C)C(=O)N[C@@H](CCC(N)=O)C(=O)N[C@@H](CC(=O)O)C(=O)N[C@@H](Cc1ccc(O)cc1)C(=O)N1CCC[C@H]1C(=O)N[C@@H](CCCNC(=N)N)C(=O)N[C@H](C(=O)N[C@@H](CC(=O)O)C(=O)N[C@H](C(=O)NCC(=O)N[C@@H](CO)C(=O)NCC(=O)N[C@@H](CO)C(=O)N1CCC[C@H]1C(N)=O)C(C)C)[C@@H](C)O` [M66] ({C22 diacid-γGlu-AEEA-AEEA}-ASQLSTAVLGRLSEELHRLQDYPRTDVGSGSP-NH2) registered a concentration for a half-maximal effect (EC50) on human amylin receptors of 0.017 nM.

As for `CC(C)C[C@H](NC(=O)[C@H](CCCNC(=N)N)NC(=O)CNC(=O)[C@H](CC(C)C)NC(=O)[C@@H](NC(=O)[C@H](C)NC(=O)[C@@H](NC(=O)[C@H](CO)NC(=O)[C@H](CC(C)C)NC(=O)[C@H](CCC(N)=O)NC(=O)[C@H](CO)NC(=O)[C@H](C)NC(=O)COCCOCCNC(=O)COCCOCCNC(=O)COCCOCCNC(=O)COCCOCCNC(=O)CC[C@H](NC(=O)CCCCCCCCCCCCCCCCCCCCC(=O)O)C(=O)O)[C@@H](C)O)C(C)C)C(=O)N[C@@H](CO)C(=O)N[C@@H](CCC(=O)O)C(=O)N[C@@H](CCC(=O)O)C(=O)N[C@@H](CC(C)C)C(=O)N[C@@H](Cc1c[nH]cn1)C(=O)N[C@@H](CCCNC(=N)N)C(=O)N[C@@H](CC(C)C)C(=O)N[C@@H](CCC(N)=O)C(=O)N[C@@H](CC(=O)O)C(=O)N[C@@H](Cc1ccc(O)cc1)C(=O)N1CCC[C@H]1C(=O)N[C@@H](CCCNC(=N)N)C(=O)N[C@H](C(=O)N[C@@H](CC(=O)O)C(=O)N[C@H](C(=O)NCC(=O)N[C@@H](CO)C(=O)NCC(=O)N[C@@H](CO)C(=O)N1CCC[C@H]1C(N)=O)C(C)C)[C@@H](C)O` [M67] ({C22 diacid-γGlu-AEEA-AEEA-AEEA-AEEA}-ASQLSTAVLGRLSEELHRLQDYPRTDVGSGSP-NH2), the EC50 at human amylin receptors was 0.017 nM.

Source of the values: patent EP4692114A1, “CALCITONIN ANALOGUE, AND DERIVATIVE THEREOF AND USE THEREOF” (Hangzhou Sciwind Biosciences Co., Ltd., priority 2023, dated 2024).
